In data set [1] the target is T1, RVV-V (Daboia siamensis, UniProt P18965). The note with it: two-state fit. As to the method: The Russel viper venom was purchased from Irula Snake-Catchers Industrial Cooperative Society (ISCICS), Tamil Nadu, India. The RVV-V was purified as described by Shiffman et al., with some changes. Lyophilized Crude venom (100 mg) was dissolved in 1 ml of 50 mM Sodium Acetate buffer (pH 5.5). The solution was centrifuged at 12,000 rpm for 10 minutes at 4°C and the supernatant was loaded to Sephadex S-100 column (FPLC). Peaks containing the RVV-V were pooled and loaded for CM Sepharose FFCation Exchange (Pharmacia) column (equilibrated with 50 mM sodium acetate buffer pH 5.5). Proteins were eluted with 50mM Na-acetate buffer with gradient 0 to 1 M Sodium Chloride. The fractions of RVV-V were pooled, dialyzed in 50 mM sodium-acetate buffer, and concentrated. Further, the binding kinetics was performed for RVV-V with both the peptides (purchased from Genei™) by SPR method.
The SPR is a well-known primary protein-ligand screening method for the measurement of a real-time, label-free detection of biomolecular interactions like protein-peptide, antibody-antigen, and protein-DNA interactions. A small amount of protein is sufficient and the affinity data are more accurate as the recorded Sensorgram is time-dependent and a continuous flow system. In the experiment the ligand is saturated with an immobilized protein followed by washing, and the association constant (Ka), and the dissociation constant (Kd) are obtained from the binding response data. Biacore T200 optical biosensor was used to get the interaction kinetics of RVV-V with the peptides. The purified RVV-V (concentration of 50 μg/ml in 50 mM sodium acetate buffer, pH 5.5) was immobilized on CM5 chip by amine-coupling method. A constant flow rate of 10μl/min was used to activate the surface of the flow cell for 7 min using a 1:1 mixture of 100 mM N-hydroxysuccinimide (NHS) and 100 mM N-ethyl-N-(dimethylaminopropyl)-carbodiimide (EDC) dissolved in water. The RVV-V was injected for 7 min, and the non-activated carboxy methyl groups on the surface were blocked by 7 min injection of 1 M ethanolamine (pH 8.5) and totally 3000 RU of the RVV-V were immobilized on the chip.
Biacore control software was used for obtaining all data by monitoring the change in the refractive index as a function of time at a flow rate of 30 μl/min. A relative quantity of peptide bound to RVV-V was quantified by calculating the amount of net increase in the refractive index over a period as compared to the initial buffer (PBS) response. The inline subtraction is performed during each run. Before changing each peptide and the peptide-concentration, the surface of the sensor chips was washed by running the buffer (PBS) and the chip was regenerated by injecting 10 mM glycine pH 2.5 for 30 sec. The association and the dissociation times are 120 and 300 sec respectively. For both the peptides, the experiment was performed by changing the concentration of the peptides ranging from 62.5 uM to 1 mM.

Data set [2] addresses T1, RVV-V. To be noted: ref [16], [17]; cited from earlier work. An excerpt:
In general, serine proteases are robust and highly sensitive for the cleavage sites; they contain catalytic triad or diad in the active site. […] Both these proteins are active against different molecular substrates. The molecular structure and the catalytic triad arrangement of the RVV-V are analogous with that of the thrombin.

The conditions of data set [3]: ref [16], [17]; cited from earlier work. An excerpt:
(§1) Both these proteins are active against different molecular substrates.

The subject of data set [4] is fibrinogen, prothrombin, factor VIII, and FX. To be noted: ref [14], [15]; cited from earlier work.
Source text: as §1

The test system of data set [5] is Factor V. To be noted: sites I, II and III of FV; ref [11]; cited from earlier work. An excerpt:
Factor V (FV) is a well-studied large protein, consists of six domains, involved in the blood coagulation cascade. […] Both the proteins cleave the FV at three different sites of FV viz., site I (Arg709–Ser710), site II (Arg1018–Thr1019), and site III (Arg1545–Ser1546). Highly glycosylated B domain of FV is removed by these proteases to achieve an active form of FV.

Like-named read-outs stand apart in the source and are kept apart here.

T1 sequence (P18965 25-260): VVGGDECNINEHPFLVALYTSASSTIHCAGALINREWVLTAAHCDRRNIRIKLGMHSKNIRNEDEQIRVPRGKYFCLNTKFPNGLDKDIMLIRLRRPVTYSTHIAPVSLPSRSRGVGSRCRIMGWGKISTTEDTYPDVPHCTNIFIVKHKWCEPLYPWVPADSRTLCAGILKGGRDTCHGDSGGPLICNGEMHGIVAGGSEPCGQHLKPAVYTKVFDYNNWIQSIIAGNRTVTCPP

As for 1008KHTHHAPLSPRTFHP1022 [Peptide II], the ka1 in data set [1] (Biacore T200, RVV-V immobilized on CM5 chip (amine coupling, 3000 RU), PBS, 30 μl/min, peptide 62.5 uM to 1 mM, association 120 s, dissociation 300 s) turned out to be 760.4 M⁻¹ s⁻¹; in data set [1] (first reaction), 760.4 M⁻¹ s⁻¹. The compound also yielded a Kd1 in data set [1] (Biacore T200, RVV-V on CM5 chip, PBS, peptide 62.5 uM to 1 mM, dissociation rate constant of first step) of 2.414 s⁻¹. In addition, the kd2 stood at 0.001942 s⁻¹ in data set [1] (Biacore T200, RVV-V on CM5 chip, PBS, peptide 62.5 uM to 1 mM, second step) and 0.001942 s⁻¹ in data set [1] (second (more stable) complex). The ka2 in data set [1] (Biacore T200, RVV-V on CM5 chip, PBS, peptide 62.5 uM to 1 mM, second step (conformational change)) was found to be 0.0002809 s⁻¹; in data set [1] (second reaction) it was 0.0002809 s⁻¹. The compound also yielded a kd1 in data set [1] (first (unstable) complex) of 2.414 s⁻¹.

For the compound `O=C(O)CN(CCN(CC(=O)O)CC(=O)O)CC(=O)O` [EDTA], in data set [2], the “response of RVV-V to serine protease inhibitor” value is on record as “no response”.

“Russell’s viper venom factor V activator [RVV-V]”: the amidase activity result in data set [3] is listed as “weak amidase activity”. In data set [4], the “effect on structure or activity after prolonged incubation” value is given as “no effect”. Moreover, the “cleavage of FV sites” value in data set [5] is “cleaving the site III and does not cleave the other two thrombin-susceptible sites”.

Source of the values: PMC5521794, “Understanding Russell’s viper venom factor V activator’s substrate specificity by surface plasmon resonance and in-silico studies” (PLoS ONE, 2017).
